Assay results taken from PubChem BioAssay AID1918993 (Molecular Pharmacology Branch, DTP, NCI, 2023).
Where “and” joins values, the source holds several entries; their conditions need not be identical. Equal values may be shown once.

Tested on: 233499-124-R-J3-PDC complex spheroid growth
Experiment: Anticancer human tumor 233499-124-R-J3-PDC patient-derived colon adenocarcinoma cell line growth inhibition [AhR]
Details: for viability, T/C: stronger effect = lower value
Procedure, shortened: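 Complex tumor spheroids co-cultured with HUVEC and human MSC stroma; AhR antagonists tested in combination with standard-of-care and investigational agents. Top concentration at or near clinical Cmax (else 10 microM), half-log dilutions; growth expressed as percent test/control.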

[1] = curve of first compound, second compound 0.1 µM
[2] = curve of first compound, second compound 0.316 µM
[3] = curve of first compound, second compound 1 µM
[4] = curve of first compound, second compound 3.16 µM
[5] = curve of first compound, second compound 10 µM
[6] = second compound 0.1 µM, first compound 0.0316 µM
[7] = second compound 0.1 µM, first compound 0.1 µM
[8] = second compound 0.316 µM, first compound 0.0316 µM
[9] = second compound 0.316 µM, first compound 0.1 µM
[10] = second compound 1 µM, first compound 0.0316 µM
[11] = second compound 1 µM, first compound 0.1 µM
[12] = second compound 3.16 µM, first compound 0.0316 µM
[13] = second compound 3.16 µM, first compound 0.1 µM
[14] = second compound 10 µM, first compound 0.0316 µM
[15] = second compound 10 µM, first compound 0.1 µM
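Note: spheroids exposed to agents for seven days before reading.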

CCc1c2c(nc3ccc(O)cc13)-c1cc3c(c(=O)n1C2)COC(=O)[C@]3(O)CC + Cc1ccccc1N=Nc1ccc(NC(=O)c2ccnn2C)c(C)c1
IC50 [1]: > 300 nM | IC50 [2]: > 300 nM | IC50 [3]: > 300 nM | IC50 [4]: > 300 nM | IC50 [5]: > 300 nM | viability, T/C (second compound 0.1 µM, first compound 0.000949 µM): 95.3% | viability, T/C (second compound 0.1 µM, first compound 0.003 µM): 103% | viability, T/C (second compound 0.1 µM, first compound 0.00949 µM): 102% | viability, T/C (second compound 0.1 µM, first compound 0.03 µM): 81.8% | viability, T/C (second compound 0.1 µM, first compound 0.0949 µM): 90.4% | viability, T/C (second compound 0.1 µM, first compound 0.3 µM): 76.6% | viability, T/C (second compound 0.316 µM, first compound 0.000949 µM): 87.6% | viability, T/C (second compound 0.316 µM, first compound 0.003 µM): 91.4% | viability, T/C (second compound 0.316 µM, first compound 0.00949 µM): 88.5% | viability, T/C (second compound 0.316 µM, first compound 0.03 µM): 75.4% | viability, T/C (second compound 0.316 µM, first compound 0.0949 µM): 77.8% | viability, T/C (second compound 0.316 µM, first compound 0.3 µM): 88% | viability, T/C (second compound 1 µM, first compound 0.000949 µM): 105% | viability, T/C (second compound 1 µM, first compound 0.003 µM): 113% | viability, T/C (second compound 1 µM, first compound 0.00949 µM): 102% | viability, T/C (second compound 1 µM, first compound 0.03 µM): 78.3% | viability, T/C (second compound 1 µM, first compound 0.0949 µM): 84.5% | viability, T/C (second compound 1 µM, first compound 0.3 µM): 86.2% | viability, T/C (second compound 3.16 µM, first compound 0.000949 µM): 91.5% | viability, T/C (second compound 3.16 µM, first compound 0.003 µM): 105% | viability, T/C (second compound 3.16 µM, first compound 0.00949 µM): 86.5% | viability, T/C (second compound 3.16 µM, first compound 0.03 µM): 86.9% | viability, T/C (second compound 3.16 µM, first compound 0.0949 µM): 91.8% | viability, T/C (second compound 3.16 µM, first compound 0.3 µM): 73.4% | viability, T/C (second compound 10 µM, first compound 0.000949 µM): 107% | viability, T/C (second compound 10 µM, first compound 0.003 µM): 90.6% | viability, T/C (second compound 10 µM, first compound 0.00949 µM): 104% | viability, T/C (second compound 10 µM, first compound 0.03 µM): 103% | viability, T/C (second compound 10 µM, first compound 0.0949 µM): 106% | viability, T/C (second compound 10 µM, first compound 0.3 µM): 101%

CC(C)c1c(-c2ccccc2)nc2c(C#N)c[nH]n2c1=O + CC(CO)NC(=O)c1cc(-c2ccc(Cl)cc2)nn(-c2cnn(C)c2)c1=O
IC50 [1]: > 10000 nM | IC50 [2]: > 10000 nM | IC50 [3]: > 10000 nM | IC50 [4]: > 10000 nM | IC50 [5]: > 10000 nM | viability, T/C [6]: 100% | viability, T/C [7]: 97.7% | viability, T/C (second compound 0.1 µM, first compound 0.316 µM): 99.6% | viability, T/C (second compound 0.1 µM, first compound 1 µM): 101% | viability, T/C (second compound 0.1 µM, first compound 3.16 µM): 104% | viability, T/C (second compound 0.1 µM, first compound 10 µM): 105% | viability, T/C [8]: 113% | viability, T/C [9]: 109% | viability, T/C (second compound 0.316 µM, first compound 0.316 µM): 89.5% | viability, T/C (second compound 0.316 µM, first compound 1 µM): 93.7% | viability, T/C (second compound 0.316 µM, first compound 3.16 µM): 96.2% | viability, T/C (second compound 0.316 µM, first compound 10 µM): 102% | viability, T/C [10]: 107% | viability, T/C [11]: 106% | viability, T/C (second compound 1 µM, first compound 0.316 µM): 98% | viability, T/C (second compound 1 µM, first compound 1 µM): 102% | viability, T/C (second compound 1 µM, first compound 3.16 µM): 104% | viability, T/C (second compound 1 µM, first compound 10 µM): 100% | viability, T/C [12]: 101% | viability, T/C [13]: 95.3% | viability, T/C (second compound 3.16 µM, first compound 0.316 µM): 94.5% | viability, T/C (second compound 3.16 µM, first compound 1 µM): 96.8% | viability, T/C (second compound 3.16 µM, first compound 3.16 µM): 92.4% | viability, T/C (second compound 3.16 µM, first compound 10 µM): 87.8% | viability, T/C [14]: 98.2% | viability, T/C [15]: 82.5% | viability, T/C (second compound 10 µM, first compound 0.316 µM): 93.5% | viability, T/C (second compound 10 µM, first compound 1 µM): 86.3% | viability, T/C (second compound 10 µM, first compound 3.16 µM): 87.4% | viability, T/C (second compound 10 µM, first compound 10 µM): 96.6%

COc1cccc2c1C(=O)c1c(O)c3c(c(O)c1C2=O)CC(O)(C(=O)CO)CC3OC1CC(N)C(O)C(C)O1 (configuration not stated)
viability, T/C (compound 0.0316 µM): 98% and 91.4% and 90.8% | viability, T/C (compound 0.1 µM): 85.2% and 85.3% and 89.7% | viability, T/C (compound 0.316 µM): 90.2% and 92.3% and 93.3% | viability, T/C (compound 1 µM): 97.9% and 97.3% and 87.4% | viability, T/C (compound 3.16 µM): 66.9% and 78% and 60.5% | viability, T/C (compound 10 µM): 60% and 71.6% and 40.6% | IC50 (curve of compound): > 10000 nM and 5810 nM

CC[C@@]1(O)C(=O)OCc2c1cc1n(c2=O)Cc2cc3c(CN(C)C)c(O)ccc3nc2-1 + CC(CO)NC(=O)c1cc(-c2ccc(Cl)cc2)nn(-c2cnn(C)c2)c1=O
IC50 [1]: > 100 nM | IC50 [2]: > 100 nM | IC50 [3]: > 100 nM | IC50 [4]: > 100 nM | IC50 [5]: > 100 nM | viability, T/C (second compound 0.1 µM, first compound 0.000316 µM): 99.5% | viability, T/C (second compound 0.1 µM, first compound 0.001 µM): 92.5% | viability, T/C (second compound 0.1 µM, first compound 0.00316 µM): 95.3% | viability, T/C (second compound 0.1 µM, first compound 0.01 µM): 87.2% | viability, T/C [6]: 84.1% | viability, T/C [7]: 57.7% | viability, T/C (second compound 0.316 µM, first compound 0.000316 µM): 87.4% | viability, T/C (second compound 0.316 µM, first compound 0.001 µM): 94.6% | viability, T/C (second compound 0.316 µM, first compound 0.00316 µM): 89% | viability, T/C (second compound 0.316 µM, first compound 0.01 µM): 99.5% | viability, T/C [8]: 89.6% | viability, T/C [9]: 68.9% | viability, T/C (second compound 1 µM, first compound 0.000316 µM): 93% | viability, T/C (second compound 1 µM, first compound 0.001 µM): 90% | viability, T/C (second compound 1 µM, first compound 0.00316 µM): 89.3% | viability, T/C (second compound 1 µM, first compound 0.01 µM): 88.8% | viability, T/C [10]: 81.9% | viability, T/C [11]: 65.3% | viability, T/C (second compound 3.16 µM, first compound 0.000316 µM): 81.3% | viability, T/C (second compound 3.16 µM, first compound 0.001 µM): 82.3% | viability, T/C (second compound 3.16 µM, first compound 0.00316 µM): 84.6% | viability, T/C (second compound 3.16 µM, first compound 0.01 µM): 99.6% | viability, T/C [12]: 88% | viability, T/C [13]: 75% | viability, T/C (second compound 10 µM, first compound 0.000316 µM): 81.5% | viability, T/C (second compound 10 µM, first compound 0.001 µM): 80.1% | viability, T/C (second compound 10 µM, first compound 0.00316 µM): 81.9% | viability, T/C (second compound 10 µM, first compound 0.01 µM): 68.6% | viability, T/C [14]: 54.9% | viability, T/C [15]: 56.1%
